biological target: T1, RORγ (Homo sapiens, UniProt P51449); test: Luciferase transfection assay: repression of RORγ transcriptional activity (MMP3 promoter reporter, dual luciferase); assay type: cell-based; conditions: 10 μM added to growth medium of transfected 3T3L1 cells; firefly/renilla luciferase ratio 48 h after transfection; average, n at least 6
T1 construct: the cells were transfected with an expression vector for full-length RORγ; expressed in transfected cells; host or cells: 3T3L1 (mouse pre-adipocyte) cells, pcDNA3 expression vector, CMV promoter
T1 sequence (P51449 1-518): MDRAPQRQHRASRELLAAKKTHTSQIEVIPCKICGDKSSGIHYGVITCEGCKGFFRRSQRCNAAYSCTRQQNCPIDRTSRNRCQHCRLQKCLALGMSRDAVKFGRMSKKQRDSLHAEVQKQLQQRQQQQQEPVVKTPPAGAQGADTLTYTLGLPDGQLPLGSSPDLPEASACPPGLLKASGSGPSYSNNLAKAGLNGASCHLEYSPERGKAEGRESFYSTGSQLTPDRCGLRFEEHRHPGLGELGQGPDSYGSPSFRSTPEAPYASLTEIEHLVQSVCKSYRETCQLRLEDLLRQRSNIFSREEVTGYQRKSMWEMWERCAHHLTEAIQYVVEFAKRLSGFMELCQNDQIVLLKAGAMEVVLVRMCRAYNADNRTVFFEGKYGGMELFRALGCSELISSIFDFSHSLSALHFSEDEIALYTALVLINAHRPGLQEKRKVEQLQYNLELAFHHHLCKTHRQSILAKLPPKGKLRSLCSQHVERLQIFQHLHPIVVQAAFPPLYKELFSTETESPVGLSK
Procedure: Adipocyte-like 3T3L1 cells grown to 60-70% confluence in 24 well dishes were used for the assay. The cells were transfected with the reporter gene (pMMP3-pGL3) or the respective empty pGL3 vector as control at a concentration of 0.1 μg/well. The pMMP3-pGL3 reporter expresses the luciferase gene under the control of the promoter of the RORγ target gene matrix metalloproteinase 3 (MMP3). In addition the cells were transfected with an expression vector for full-length RORγ or the respective empty pcDNA3 control vector at 0.1 ug/well. The pCMV-Renilla plasmid served as internal control to normalize for transfection efficacy at a concentration of 0.05 μg/well. All plasmids were transfected at the same time into the cell using the transfection reagent Fugene according to the manufacture's protocol (Promega). […] Firefly as well as renilla luciferase activity was measured 48 h after transfection using the Dual Luciferase Detection System (Promega) following the instructions provided by the manufacturer.
Compounds 13a, 13b and 14a were tested for their ability to inhibit gene transcription induced by the orphan nuclear receptor RORγ using a dual luciferase assay. […] This system allows to determine if a substance of interest is actively repressing the transcriptional activity of RORγ by using reduced luciferase activity as a read-out (FIG. 2).
For the actual experiment 60-70% confluent 3T3L1 pre-adipocytes were transfected with the MMP3 reporter, RORγ and the normalization vector expressing renilla luciferase. […] 48 h after introducing the plasmids, the cells were harvested, lysed and the activity of firefly as well as renilla luciferase measured in each well. The efficacy of a substance to repress RORγ activity was calculated from the ratio of firefly over renilla luciferase activity and normalization to the control wells and the DMSO treated wells. […]

In order of rising “transcriptional activity of RORγ, as % of the intensity measured in the presence of DMSO” value:
1. C[C@H](C[C@@H](O)C(=O)O)C1C[C@H](O)[C@H]2C3C(CC[C@]12C)[C@@]1(C)CC[C@@H](O)C[C@H]1C[C@H]3O (stereo partly drawn) [Compound 13a, 3α,7α,15α,(23R)-tetrahydroxy-5β-cholanoic acid]  52%
2. C[C@H](C[C@@H](O)C(=O)NCCS(=O)(=O)O)C1C[C@H](O)[C@H]2C3C(CC[C@]12C)[C@@]1(C)CC[C@@H](O)C[C@H]1C[C@H]3O (stereo in doubt) [Compound 14a, 3α,7β,15α,(23R)-tetrahydroxy-5β-24-oxocholanyl-amino ethansulfonic acid]  56%
3. C[C@H](C[C@H](O)C(=O)O)C1C[C@H](O)[C@H]2C3C(CC[C@]12C)[C@@]1(C)CC[C@@H](O)C[C@H]1C[C@H]3O (stereo partly drawn) [Compound 13b, 3α,7α, 15α,(23S)-tetrahydroxy-5β-cholanoic acid]  57%
